Values of other authors as cited in patent US20140141044A1, “Cord Colitis Syndrome Pathogen” (Dana-Farber Cancer Institute, Inc., priority 2012, published 2014).

System: B. enterica
Settings: direct or inferred from related organisms

Question: Which “sensitivity of B. enterica” value does the source give for `Cc1ncc([N+](=O)[O-])n1CCO` [metronidazole] here?
Answer: direct or inferred sensitivity
